Series [1] has as its target T1, MtFBPaseII (Mycobacterium tuberculosis, UniProt P9WN21).
T1 construct: gene glpX; wild type; tetramer
It is filed as binding.

For series [2], the target named is T2, FtFBPaseII (Francisella tularensis, UniProt Q5NEJ8).
T2 construct: gene gplX
The settings on record: low (suboptimal) Mn2+; active site of chain C.

Series [3] concerns the target Francisella tularensis class II fructose-1,6-bisphosphatase (FtFBPaseII), wild type (Francisella tularensis). Description: crystal structure.
Series [4] concerns the molecule itself. Briefly: crystal structure.

What is called stoichiometry N is the number of molecules, sites or subunits per partner or assembly.

As for `O=P(O)(O)OC[C@H]1OC(O)(COP(=O)(O)O)[C@@H](O)[C@@H]1O` (stereo partly shown) [F1,6BP], in series [1], the “X-ray crystal structure (Form C, 3.7 A)” value is given as “The final refined structure confirmed the presence of the F1,6BP substrate in both chains”. Also, the “X-ray crystal structure (Form E, 2.2 A)” value in series [2] is listed as “could be interpreted as what appeared to be a substrate molecule bound”.

On to “Francisella tularensis class II fructose-1,6-bisphosphatase (FtFBPaseII), wild type (enzyme)”, for which, in series [3], the stoichiometry N was found to be 4.

B1: Mycobacterium tuberculosis class II fructose-1,6-bisphosphatase (MtFBPaseII), wild type (enzyme)
chain: MELVRVTEAGAMAAGRWVGRGDKEGGDGAAVDAMRELVNSVSMRGVVVIGEGEKDHAPMLYNGEEVGNGDGPECDFAVDPIDGTTLMSKGMTNAISVLAVADRGTMFDPSAVFYMNKIAVGPDAAHVLDITAPISENIRAVAKVKDLSVRDMTVCILDRPRHAQLIHDVRATGARIRLITDGDVAGAISACRPHSGTDLLAGIGGTPEGIIAAAAIRCMGGAIQAQLAPRDDAERRKALEAGYDLNQVLTTEDLVSGENVFFCATGVTDGDLLKGVRYYPGGCTTHSIVMRSKSGTVRMIEAYHRLSKLNEYSAIDFTGDSSAVYPLP
notes: also called Mt(Mg^2+)FBPaseII
On to B1, for which, in series [4], the “stoichiometry N” value was 4.

These data come from publication PMC10289334 (PLOS ONE, 2023).
